Experiments:
[1] = in words, stated as known; cited from earlier work
[2] = Organ distribution of 99mTc-IDP in rabbits with 85Sr administered simultaneously (Table 1); format: in vivo, New Zealand adult albino rabbits; settings: for % Dose/1% Body Weight, AVG BONE: mean of femur, tibia, spine, pelvis, 6 rabbits
Experimental: The organ distribution of the ^99m Tc imidodiphosphonate (IDP) was studied after I.V. injection of 50-200 μCi containing 0.1-0.2 mg of IDP per animal in New Zealand adult albino rabbits weighing 3.5-5 kg and compared with 10-20 μCi of ^85 Sr administered simultaneously as a biological standard. The methods of tissue assay used were those described in the Subramanian et al. references, supra. These animals were sacrificed at various time intervals from 15 min. to 24 hrs. after injection. […] A whole body image of the dog was obtained in the right lateral projection 4 hours after intravenous injection of 5 mCi of ^99m Tc-IDP using the Ohio Nuclear Model 100 area scan camera fitted with a 140 kev high sensitivity parallel hole collimator, with the data density setting of 200.
Table 1 contains biological distribution data of ^99m Tc-IDP in rabbits with ^85 Sr used simultaneously. The numbers shown in parenthesis after the time of study is the number of animals used per time interval. The values for each organ shown are the averages for each group of animals. The bone concentration shown as % dose / 1% body weight is the mean value of individual average of concentrations in four types of bone; the femur, tibia, spine and pelvis. An overall mean concentration of the four types of bone was calculated for each animal and then the average of these mean values were determined. Similarly the mean values for bone/organ ratios were calculated for each group.
In order to compensate for biologic variation, bone agents are best studied by comparing the quantitative uptake of the new compound with simultaneously administered ^85 Sr as a means of normalization. In comparing several ^99m Tc labeled agents between each other one should not only compare the whole organ uptake of individual compounds but also the ratios of their concentrations with ^85 Sr, especially so in comparing bone uptakes. Due to regional variation in bone uptake with the skeleton it is difficult to correctly estimate whole body bone uptake quantitatively. Nevertheless, the data for single whole bones (femur and tibia) is useful. […] This concentration change over serial time intervals may be due to the metabolic breakdown of the compound at the bone mineral surface with the ^99m Tc complex being more labile, while we known the biological half life of ^85 Sr is prolonged. Even at the later time intervals than 2 hours, ^99m Tc-IDP concentration in bone is at least 20-25% higher than the other Tc complexes (Table 2). The soft tissue concentrations of all these complexes are lower, especially that of the muscle, than ^85 Sr. The liver concentration is somewhat higher than ^85 Sr for some ^99m Tc complexes. This should not be a problem because the total liver concentration is relatively low.

[3] = 15 min after I.V. injection, mean of 6 rabbits
[4] = 1 hour after I.V. injection, mean of 6 rabbits
[5] = 2 hours after I.V. injection, mean of 9 rabbits

[85Sr] [85Sr]
biological half life [1]: prolonged
% Dose in Whole Organ, BLOOD [2, 3]: 16.1 % Dose
% Dose in Whole Organ, KIDNEY [2, 3]: 1.27 % Dose
% Dose in Whole Organ, LIVER [2, 3]: 2.13 % Dose
% Dose in Whole Organ, MARROW [2, 3]: 0.903 % Dose
% Dose in Whole Organ, MUSCLE [2, 3]: 15.6 % Dose
% Dose in Whole Organ, URINE [2, 3]: 4.94 % Dose
% Dose in Whole Organ, WHOLE FEMUR [2, 3]: 0.741 % Dose
% Dose in Whole Organ, WHOLE TIBIA [2, 3]: 0.540 % Dose
% Dose/1% Body Weight, BLOOD [2, 3]: 2.29 % Dose/1% Body Weight
% Dose/1% Body Weight, FEMUR [2, 3]: 3.41 % Dose/1% Body Weight
% Dose/1% Body Weight, KIDNEY [2, 3]: 2.68 % Dose/1% Body Weight
% Dose/1% Body Weight, LG INT [2, 3]: 1.79 % Dose/1% Body Weight
% Dose/1% Body Weight, LIVER [2, 3]: 0.692 % Dose/1% Body Weight
% Dose/1% Body Weight, MARROW [2, 3]: 0.410 % Dose/1% Body Weight
% Dose/1% Body Weight, MUSCLE [2, 3]: 0.363 % Dose/1% Body Weight
% Dose/1% Body Weight, PELVIS [2, 3]: 5.06 % Dose/1% Body Weight
% Dose/1% Body Weight, SM INT [2, 3]: 1.23 % Dose/1% Body Weight
% Dose/1% Body Weight, SPINE [2, 3]: 3.76 % Dose/1% Body Weight
% Dose/1% Body Weight, TIBIA [2, 3]: 3.02 % Dose/1% Body Weight
RATIOS BONE/BLOOD [2, 3]: 1.71
RATIOS BONE/MARROW [2, 3]: 9.84
RATIOS BONE/MUSCLE [2, 3]: 10.6
% Dose/1% Body Weight, AVG BONE ([2]; 15 min after I.V. injection): 3.82 % Dose/1% Body Weight
% Dose in Whole Organ, BLOOD [2, 4]: 8.17 % Dose
% Dose in Whole Organ, KIDNEY [2, 4]: 0.938 % Dose
% Dose in Whole Organ, LIVER [2, 4]: 1.58 % Dose
% Dose in Whole Organ, MARROW [2, 4]: 0.817 % Dose
% Dose in Whole Organ, MUSCLE [2, 4]: 9.55 % Dose
% Dose in Whole Organ, URINE [2, 4]: 8.96 % Dose
% Dose in Whole Organ, WHOLE FEMUR [2, 4]: 1.27 % Dose
% Dose in Whole Organ, WHOLE TIBIA [2, 4]: 1.03 % Dose
% Dose/1% Body Weight, BLOOD [2, 4]: 1.17 % Dose/1% Body Weight
% Dose/1% Body Weight, FEMUR [2, 4]: 5.23 % Dose/1% Body Weight
% Dose/1% Body Weight, KIDNEY [2, 4]: 1.54 % Dose/1% Body Weight
% Dose/1% Body Weight, LG INT [2, 4]: 0.961 % Dose/1% Body Weight
% Dose/1% Body Weight, LIVER [2, 4]: 0.489 % Dose/1% Body Weight
% Dose/1% Body Weight, MARROW [2, 4]: 0.382 % Dose/1% Body Weight
% Dose/1% Body Weight, MUSCLE [2, 4]: 0.222 % Dose/1% Body Weight
% Dose/1% Body Weight, PELVIS [2, 4]: 5.47 % Dose/1% Body Weight
% Dose/1% Body Weight, SM INT [2, 4]: 0.654 % Dose/1% Body Weight
% Dose/1% Body Weight, SPINE [2, 4]: 5.82 % Dose/1% Body Weight
% Dose/1% Body Weight, TIBIA [2, 4]: 4.67 % Dose/1% Body Weight
RATIOS BONE/BLOOD [2, 4]: 4.53
RATIOS BONE/MARROW [2, 4]: 13.9
RATIOS BONE/MUSCLE [2, 4]: 23.9
% Dose/1% Body Weight, AVG BONE ([2]; 1 hour after I.V. injection): 5.30 % Dose/1% Body Weight
% Dose in Whole Organ, BLOOD [2, 5]: 5.19 % Dose
% Dose in Whole Organ, KIDNEY [2, 5]: 0.638 % Dose
% Dose in Whole Organ, LIVER [2, 5]: 0.947 % Dose
% Dose in Whole Organ, MARROW [2, 5]: 0.499 % Dose
% Dose in Whole Organ, MUSCLE [2, 5]: 7.96 % Dose
% Dose in Whole Organ, URINE [2, 5]: 16.6 % Dose
% Dose in Whole Organ, WHOLE FEMUR [2, 5]: 1.67 % Dose
% Dose in Whole Organ, WHOLE TIBIA [2, 5]: 1.34 % Dose
% Dose/1% Body Weight, BLOOD [2, 5]: 0.742 % Dose/1% Body Weight
% Dose/1% Body Weight, FEMUR [2, 5]: 6.84 % Dose/1% Body Weight
